For this experiment, the target named is T1, GLP-1 receptor (Homo sapiens, UniProt P43220).
T1 construct: expressed in transfected cells; host or cells: CHO-K1
As to the kind of experiment: cAMP assay (HTRF) in GLP-1 receptor CHO-K1 cells. In kind it is cell-based. The note with it: for Emax: CHO-K1, cAMP stimulation ratio. The protocol:
The cAMP assay test was performed according to a method optimized based on a protocol provided by cAMP assay kit manufacturer (CISBIO). […] 54, of the compounds according to the Examples 1, 2, 5, 8, 12, 13, 15, 16, 19, 20, 23, 29, 32, 37, 39 and 43 at the concentration of 0, 1, 10, 100, 1000, 10000 nM was treated to each of the wells of the other plates, respectively. The cells were incubated at room temperature for 7 minutes. A cAMP-d2 conjugate reagent was prepared by mixing a cAMP conjugate with an elution buffer at a ratio of 1:4. An anti-cAMP cryptate conjugate reagent was prepared by mixing a […] with an elution buffer at a ratio of 1:4. Then, 5 μL, of the cAMP-d2 conjugate reagent was added to each of the wells. Subsequently, 5 μL, of the anti-cAMP cryptate conjugate reagent was added to each of the wells. After incubation of the cells at room temperature for 1 hour, HTRF signals at wavelengths of 665 nm and 620 nm of the culture were measured using a FlexStaton 3 (Molecular Devices) instrument. The ratio of 665/620 was calculated from the measured values at 665 nm and 620 nm with regard to Exendin-4 and the compounds of the Examples, respectively.
(In general: Changes in cAMP serve as a functional read-out for many G protein-coupled receptors.)

Setting [1] is: 665/620 ratio with Exendin-4 converted to 100%.

The record followed here is patent publication US20230002348A1 (ILDONG PHARMACEUTICAL CO., LTD., priority 2019, published 2023).

Usually EC50 stands for the concentration needed to bring the measured effect to its halfway point. A lower EC50 goes with greater potency. One may read the Emax as the maximal effect, on the per cent scale that the assay sets.

Like-named read-outs stand apart in the source and are kept apart here.

T1 sequence (P43220 24-463, species assumed): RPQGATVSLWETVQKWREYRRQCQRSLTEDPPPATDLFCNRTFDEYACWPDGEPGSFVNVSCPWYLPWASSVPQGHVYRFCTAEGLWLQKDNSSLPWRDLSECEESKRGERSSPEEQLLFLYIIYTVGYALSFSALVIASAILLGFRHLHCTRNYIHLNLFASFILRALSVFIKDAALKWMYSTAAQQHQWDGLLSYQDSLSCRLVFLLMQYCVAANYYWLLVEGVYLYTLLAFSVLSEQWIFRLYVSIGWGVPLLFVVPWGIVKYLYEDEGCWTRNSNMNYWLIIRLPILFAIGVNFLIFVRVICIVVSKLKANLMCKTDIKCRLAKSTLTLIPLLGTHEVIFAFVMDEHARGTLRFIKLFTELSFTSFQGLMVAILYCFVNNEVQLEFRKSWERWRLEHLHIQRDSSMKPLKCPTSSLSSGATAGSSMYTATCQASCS

Turning to `N#Cc1ccc(COc2cccc(N[C@@H]3CCN(Cc4nc5ccc(C(=O)O)cc5n4C[C@@H]4CCO4)C3)n2)c(F)c1` [Example 20, 2-((3-((6-((4-cyano-2-fluorobenzyl)oxy)pyridin-2-yl)amino)pyrrolidin-1-yl)methyl)-1-(((S)-oxetan-2-yl)methyl)-1H-benzo[d]imidazole-6-carboxylic acid], the concentration for a half-maximal effect (EC50) was less than 100 nM. Besides, under setting [1], the Emax came to 96.3%.
The compound `O=C(O)c1ccc2nc(CN3CCC(Oc4cccc(NCc5ccc(Cl)cc5F)n4)CC3)n(C[C@@H]3CCO3)c2c1` [Example 5, (S)-2-((4-((6-((4-chloro-2-fluorobenzyl)amino)pyridin-2-yl)oxy)piperidin-1-yl)methyl)-1-(oxetan-2-ylmethyl)-1H-benzo[d]imidazole-6-carboxylic acid] had an EC50 of 100 to 200 nM. Besides, the maximal response (Emax) under setting [1] stood at 107%.
As for `O=C(O)c1ccc2nc(CN3CC[C@@H](Nc4cccc(OCc5ccc(Cl)cc5F)n4)C3)n(C[C@@H]3CCO3)c2n1` [Example 16, 2-(((R)-3-((6-((4-chloro-2-fluorobenzyl)oxy)pyridin-2-yl)amino)pyrrolidin-1-yl)methyl)-3-(((S)-oxetan-2-yl)methyl)-3H-imidazo[4,5-b]pyridine-5-carboxylic acid], the EC50 is less than 100 nM. Moreover, the Emax under setting [1] was 95%.
In the same order, the values of `N#Cc1ccc(COc2nccc(N[C@@H]3CCN(Cc4nc5ccc(C(=O)O)cc5n4C[C@@H]4CCO4)C3)n2)c(F)c1` [Example 23, 2-(((R)-3-((2-((4-cyano-2-fluorobenzyl)oxy)pyrimidin-4-yl)amino)pyrrolidin-1-yl)methyl)-1-(((S)-oxetan-2-yl)methyl)-1H-benzo[d]imidazole-6-carboxylic acid] are 100 to 200 nM and 99.8%.
In the same order, the values of `N#Cc1ccc(COc2cncc(NC3CCN(Cc4nc5ccc(C(=O)O)cc5n4C[C@@H]4CCO4)CC3)n2)c(F)c1` [Example 19, (S)-2-((4-((6-((4-cyano-2-fluorobenzyl)oxy)pyrazin-2-yl)amino)piperidin-1-yl)methyl)-1-(oxetan-2-ylmethyl)-1H-benzo[d]imidazole-6-carboxylic acid] are 100 to 200 nM and 97%.
As to `O=C(O)c1ccc2nc(CN3CCC(Nc4cccc(OCc5ccc(Cl)cc5F)n4)CC3)n(C[C@@H]3CCO3)c2c1` [Example 12, (S)-2-((4-((6-((4-chloro-2-fluorobenzyl)oxy)pyridin-2-yl)amino)piperidin-1-yl)methyl)-1-(oxetan-2-ylmethyl)-1H-benzo[d]imidazole-6-carboxylic acid], the half-maximal effective concentration (EC50) was less than 100 nM. Further, the Emax under setting [1] was found to be 103%.
The corresponding values for `N#Cc1ccc(COc2cc(N[C@@H]3CCN(Cc4nc5ccc(C(=O)O)cc5n4C[C@@H]4CCO4)C3)ccc2F)nc1` [Example 8, 2-(((R)-3-((3-((5-cyanopyridin-2-yl)methoxy)-4-fluorophenyl)amino)pyrrolidin-1-yl)methyl)-1-(((S)-oxetan-2-yl)methyl)-1H-benzo[d]imidazole-6-carboxylic acid] are less than 100 nM and 99.6%.
For the compound `O=C(O)c1ccc2nc(CN3CCC(Nc4cccc(OCc5ccc(Cl)cn5)n4)CC3)n(C[C@@H]3CCO3)c2c1` [Example 39, (S)-2-((4-((6-((5-chloropyridin-2-yl)methoxy)pyridin-2-yl)amino)piperidin-1-yl)methyl)-1-(oxetan-2-ylmethyl)-1H-benzo[d]imidazole-6-carboxylic acid], the 50% effective concentration (EC50) lay in the range of 100 to 200 nM. For the same compound, the maximal response (Emax) under setting [1] is 96.6%.
Turning to `N#Cc1ccc(COc2ccnc(N[C@@H]3CCN(Cc4nc5ccc(C(=O)O)cc5n4C[C@@H]4CCO4)C3)n2)c(F)c1` [Example 43, 2-(((R)-3-((4-((4-cyano-2-fluorobenzyl)oxy)pyrimidin-2-yl)amino)pyrrolidin-1-yl)methyl)-1-(((S)-oxetan-2-yl)methyl)-1H-benzo[d]imidazole-6-carboxylic acid], the concentration giving a half-maximal response (EC50) was less than 100 nM. Besides, the maximal effect (Emax) under setting [1] was determined as 110%.
The corresponding values for `O=C(O)c1ccc2nc(CN3CC[C@@H](Nc4ncc(F)c(OCc5ccc(Cl)cc5F)n4)C3)n(C[C@@H]3CCO3)c2c1` [Example 29, 2-(((R)-3-((4-((4-chloro-2-fluorobenzyl)oxy)-5-fluoropyrimidin-2-yl)amino)pyrrolidin-1-yl)methyl)-1-(((S)-oxetan-2-yl)methyl)-1H-benzo[d]imidazole-6-carboxylic acid] are less than 100 nM and 99.2%.
Consider `N#Cc1ccc(COc2cccc(NC3CCN(Cc4nc5ccc(C(=O)O)cc5n4C[C@@H]4CCO4)CC3)c2)c(F)c1` [Example 2, (S)-2-((4-((3-((4-cyano-2-fluorobenzyl)oxy)phenyl)amino)piperidin-1-yl)methyl)-1-(oxetan-2-ylmethyl)-1H-benzo[d]imidazole-6-carboxylic acid], for which the EC50 fell in the range of 100 to 200 nM. Under setting [1], the maximal response (Emax) turned out to be 102%.
In turn, `N#Cc1ccc(COc2cccc(N[C@@H]3CCN(Cc4nc5ccc(C(=O)O)cc5n4C[C@@H]4CCO4)C3)c2)c(F)c1` [Example 37, 2-(((R)-3-((3-((4-cyano-2-fluorobenzyl)oxy)phenyl)amino)pyrrolidin-1-yl)methyl)-1-(((S)-oxetan-2-yl)methyl)-1H-benzo[d]imidazole-6-carboxylic acid] gave a concentration giving a half-maximal response (EC50) of less than 100 nM. Under setting [1], the maximal effect (Emax) was 127%.
`O=C(O)c1ccc2nc(CN3CCC(Nc4cccc(OCc5ccc(Cl)cc5F)n4)CC3)n(C[C@@H]3CCO3)c2n1` [Example 13] yielded a half-maximal effective concentration (EC50) of less than 100 nM. The maximal response (Emax) under setting [1] worked out at 94.5%.
Take `N#Cc1ccc(COc2cccc(NC3CCN(Cc4nc5ccc(C(=O)O)cc5n4C[C@@H]4CCO4)CC3)n2)c(F)c1` [Example 1, (S)-2-((4-((6-((4-cyano-2-fluorobenzyl)oxy)pyridin-2-yl)amino)piperidin-1-yl)methyl)-1-(oxetan-2-ylmethyl)-1H-benzo[d]imidazole-6-carboxylic acid]: the EC50 was less than 100 nM. Besides, under setting [1], the maximum response (Emax) amounted to 96.3%.
With `O=C(O)c1ccc2nc(CN3CC[C@@H](Nc4cccc(OCc5ccc(Cl)cc5F)n4)C3)n(C[C@@H]3CCO3)c2c1` [Example 15, 2-(((R)-3-((6-((4-chloro-2-fluorobenzyl)oxy)pyridin-2-yl)amino)pyrrolidin-1-yl)methyl)-1-(((S)-oxetan-2-yl)methyl)-1H-benzo[d]imidazole-6-carboxylic acid], the EC50 is less than 100 nM. For the same compound, the Emax under setting [1] amounted to 99.6%.
In the case of `N#Cc1ccc(COc2cccc(N[C@@H]3CCN(Cc4nc5ccc(C(=O)O)cc5n4C[C@@H]4CCO4)C3)n2)c(F)c1` [Example 32, 2-(((R)-3-((6-((4-cyano-2-fluorobenzyl)oxy)pyridin-2-yl)amino)pyrrolidin-1-yl)methyl)-1-(((S)-oxetan-2-yl)methyl)-1H-benzo[d]imidazole-6-carboxylic acid], the EC50 (GLP-1 receptor CHO-K1 cells, cAMP HTRF, 7 minutes incubation at room temperature) is less than 100 nM. Further, the “Emax (%)” value (cAMP stimulation ratio, 665/620 ratio with Exendin-4 converted to 100%) came out at 96.94%.
